Measurements taken from PubChem BioAssay AID1963973 (Molecular Pharmacology Branch, DTP, NCI, 2024).
Each block holds one molecule with its values, some of them ahead of it.

Tested on: 883617-216-R-J1-PDC tumor spheroids, viability
Experiment: Anticancer human tumor 883617-216-R-J1-PDC patient-derived bladder carcinoma cell line growth inhibition [PI3K]
Conditions: spheroids with HUVEC and MSC; for viability, T/C: stronger effect = lower value
From the text: Combinatorial screen of targeted agents with the PI3K inhibitors inavolisib, alpelisib, duvelisib, and copanlisib in multi-cell type tumor spheroids
A high-throughput screen of multi-cell type tumor spheroids was designed to identify active combinations of targeted small molecules and PI3K pathway inhibitors. Complex spheroids include a stromal component modeled by human endothelial cells (HUVEC) and fibroblasts modeled by human mesenchymal stem cells (MSCs). The concentration ranges selected for each drug and investigational agent were based upon clinically achievable concentrations if the clinical Cmax of the agent was known.
Compounds. The drugs and investigational agents: inavolisib (NSC800729), alpelisib (NSC765974), duvelisib (NSC772469), copanlisib (NSC816437), ipatasertib (NSC767898), afuresertib (NSC778305), talazoparib (NSC767125), sapanisertib (NSC764658), selumetinib (NSC741078), tovorafenib (DAY101, NSC766906), vemurafenib (NSC761431), ravoxertinib (NSC781343), sotorasib (NSC818433), MRTX1133 (NSC 836407), abemaciclib (NSC 768073), palbociclib (NSC758247), venetoclax (NSC 766270), SY5609 (NSC837396), enzalutamide (NSC755605), and darolutamide (NSC825331), were obtained from the National Cancer Institute (NCI) Developmental Therapeutics Program Chemical Repository. The FDA-approved anticancer drug set is available from the NCI Developmental Therapeutics Program. […] The stock solutions were prepared in dimethyl sulfoxide (DMSO, Sigma-Aldrich, St. Louis, MO, cat. D2650) at 800-fold the tested concentration and stored at -70 degrees C prior to their use. All drugs and investigational agents were tested over a range starting from a high concentration at or near the clinical Cmax and decreasing in half-log increments. If the clinical Cmax for an agent had not been determined, the highest concentration tested was 10 microM.
Cell Culture. All cells were maintained in an incubator at 37 degrees C and 5% CO2 with 95% humidity. The PDC lines were cultured according to standard operating procedures established by the NCI PDMR (https://pdmr.cancer.gov/sops/default.htm). All PDCs were thawed and cultured in Matrigel-coated flasks prepared with a working solution of 1X Ham's F-12 nutrient mix, without supplementation (Invitrogen, Waltham, MA, cat. 11765054), 100 U/mL penicillin-streptomycin (Invitrogen, cat. 15140122), and 2.5% Matrigel (Corning Inc., Corning, NY, cat. 354248) for the first three passages. The 354836-022-R-J1-PDC, 475296-252-R-J1-PDC, and 997726-040-R-J2-PDC lines were cultured in 6A media, which includes advanced DMEM/F-12 (Thermo Fisher Scientific, cat. 12634028), 10 mM HEPES (Thermo Fisher Scientific, cat. 15630080), 1X GlutaMAX supplement (Thermo Fisher Scientific, cat. 35050061), 0.1 mg/mL primocin (InvivoGen, San Diego, CA, cat. ant-pm-2), 10% defined fetal bovine serum, heat inactivated (HyClone Laboratories Inc., Logan, UT, cat. SH30070.03HI), 50% L-WRN conditioned media (ATCC, cat. CRL-3276), 1.25 mM N-Acetyl-L-cysteine (Sigma-Aldrich, cat. A9165), 10 mM nicotinamide (Sigma-Aldrich, cat. N0636), 1X B-27 supplement (Thermo Fisher Scientific, cat. 17504044), 1X N-2 supplement (Thermo Fisher Scientific, cat. 17502048), and 10 microM Y-27632 dihydrochloride (Tocris Bioscience, Bristol, United Kingdom, cat. 1254). The 624824-186-R-J2-PDC line was cultured in 6C/Colon 1B media, which includes all 6A media components plus 50 ng/mL human EGF recombinant protein (Thermo Fisher Scientific, cat. PHG0311). […]

[1] = curve of first compound, second compound 0.0316 µM
[2] = curve of first compound, second compound 0.1 µM
[3] = curve of first compound, second compound 0.316 µM
[4] = curve of first compound, second compound 1 µM
[5] = second compound 0.0316 µM, first compound 0.0316 µM
[6] = second compound 0.0316 µM, first compound 0.1 µM
[7] = second compound 0.0316 µM, first compound 0.316 µM
[8] = second compound 0.0316 µM, first compound 1 µM
[9] = second compound 0.0316 µM, first compound 3.16 µM
[10] = second compound 0.0316 µM, first compound 10 µM
[11] = second compound 0.1 µM, first compound 0.0316 µM
[12] = second compound 0.1 µM, first compound 0.1 µM
[13] = second compound 0.1 µM, first compound 0.316 µM
[14] = second compound 0.1 µM, first compound 1 µM
[15] = second compound 0.1 µM, first compound 3.16 µM
[16] = second compound 0.1 µM, first compound 10 µM
[17] = second compound 0.316 µM, first compound 0.0316 µM
[18] = second compound 0.316 µM, first compound 0.1 µM
[19] = second compound 0.316 µM, first compound 0.316 µM
[20] = second compound 0.316 µM, first compound 1 µM
[21] = second compound 0.316 µM, first compound 3.16 µM
[22] = second compound 0.316 µM, first compound 10 µM
[23] = second compound 1 µM, first compound 0.0316 µM
[24] = second compound 1 µM, first compound 0.1 µM
[25] = second compound 1 µM, first compound 0.316 µM
[26] = second compound 1 µM, first compound 1 µM
[27] = second compound 1 µM, first compound 3.16 µM
[28] = second compound 1 µM, first compound 10 µM
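Further: spheroids exposed to agents for 7 days before the viability read.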

IC50 (curve of compound): 591 nM [middle of 4 runs]
SMILES: CC(C)NCC(C(=O)N1CCN(c2ncnc3c2C(C)CC3O)CC1)c1ccc(Cl)cc1 (stereo unspecified)
viability, T/C (compound 0.0316 µM): 93.7% [middle of 4 runs]
viability, T/C (compound 0.1 µM): 77.3% [middle of 4 runs]
viability, T/C (compound 0.316 µM): 68.3% [middle of 4 runs]
viability, T/C (compound 1 µM): 40.5% [middle of 4 runs]
viability, T/C (compound 3.16 µM): 17.1% [middle of 4 runs]
viability, T/C (compound 10 µM): 7.67% [middle of 4 runs]

IC50 (curve of first compound, second compound 0.00316 µM): > 10000 nM
IC50 (curve of first compound, second compound 0.01 µM): > 10000 nM
IC50 [1]: < 31.6 nM
IC50 [2]: < 31.6 nM
IC50 [3]: < 31.6 nM
IC50 [4]: < 31.6 nM
SMILES: CC(Cn1ccc(-c2ccc(C#N)c(Cl)c2)n1)NC(=O)c1cc(C(C)O)[nH]n1 (stereo unspecified) + COc1c(OCCCN2CCOCC2)ccc2c3n(c(=NC(=O)c4cnc(N)nc4)nc12)CCN3
viability, T/C (second compound 0.00316 µM, first compound 0.0316 µM): 74.1%
viability, T/C (second compound 0.00316 µM, first compound 0.1 µM): 75.2%
viability, T/C (second compound 0.00316 µM, first compound 0.316 µM): 83.8%
viability, T/C (second compound 0.00316 µM, first compound 1 µM): 96.2%
viability, T/C (second compound 0.00316 µM, first compound 3.16 µM): 83.8%
viability, T/C (second compound 0.00316 µM, first compound 10 µM): 79.3%
viability, T/C (second compound 0.01 µM, first compound 0.0316 µM): 68.8%
viability, T/C (second compound 0.01 µM, first compound 0.1 µM): 70.4%
viability, T/C (second compound 0.01 µM, first compound 0.316 µM): 70.3%
viability, T/C (second compound 0.01 µM, first compound 1 µM): 65.6%
viability, T/C (second compound 0.01 µM, first compound 3.16 µM): 65.7%
viability, T/C (second compound 0.01 µM, first compound 10 µM): 64.2%
viability, T/C [5]: 31.1%
viability, T/C [6]: 33%
viability, T/C [7]: 37.3%
viability, T/C [8]: 29.4%
viability, T/C [9]: 35.7%
viability, T/C [10]: 30.2%
viability, T/C [11]: 14.9%
viability, T/C [12]: 11%
viability, T/C [13]: 14.6%
viability, T/C [14]: 19%
viability, T/C [15]: 13.3%
viability, T/C [16]: 11.6%
viability, T/C [17]: 5.01%
viability, T/C [18]: 4.53%
viability, T/C [19]: 4.26%
viability, T/C [20]: 4.08%
viability, T/C [21]: 5.69%
viability, T/C [22]: 4.16%
viability, T/C [23]: 3.17%
viability, T/C [24]: 2.54%
viability, T/C [25]: 3.2%
viability, T/C [26]: 3.42%
viability, T/C [27]: 4.42%
viability, T/C [28]: 4.01%

IC50 [1]: < 31.6 nM
IC50 [2]: < 31.6 nM
IC50 [3]: < 31.6 nM
IC50 [4]: < 31.6 nM
IC50 (curve of first compound, second compound 3.16 µM): < 31.6 nM
IC50 (curve of first compound, second compound 10 µM): < 31.6 nM
SMILES: CC1(C)CCC(Nc2ncc(C(F)(F)F)c(-c3c[nH]c4c(P(C)(C)=O)c(C#N)ccc34)n2)CN1 (stereo unspecified) + Cc1nc(NC(=O)N2CCCC2C(N)=O)sc1-c1ccnc(C(C)(C)C(F)(F)F)c1
viability, T/C [5]: 35%
viability, T/C [6]: 25.2%
viability, T/C [7]: 21.7%
viability, T/C [8]: 18.4%
viability, T/C [9]: 7.32%
viability, T/C [10]: 0.34%
viability, T/C [11]: 27.1%
viability, T/C [12]: 23.6%
viability, T/C [13]: 25.7%
viability, T/C [14]: 20.1%
viability, T/C [15]: 5.12%
viability, T/C [16]: 0.15%
viability, T/C [17]: 23.2%
viability, T/C [18]: 25.2%
viability, T/C [19]: 23.2%
viability, T/C [20]: 12.9%
viability, T/C [21]: 4.57%
viability, T/C [22]: 0.17%
viability, T/C [23]: 18.1%
viability, T/C [24]: 18.6%
viability, T/C [25]: 14.2%
viability, T/C [26]: 19.3%
viability, T/C [27]: 3.08%
viability, T/C [28]: 0.12%
viability, T/C (second compound 3.16 µM, first compound 0.0316 µM): 11.7%
viability, T/C (second compound 3.16 µM, first compound 0.1 µM): 11.7%
viability, T/C (second compound 3.16 µM, first compound 0.316 µM): 8.82%
viability, T/C (second compound 3.16 µM, first compound 1 µM): 11.7%
viability, T/C (second compound 3.16 µM, first compound 3.16 µM): 1.63%
viability, T/C (second compound 3.16 µM, first compound 10 µM): 0.09%
viability, T/C (second compound 10 µM, first compound 0.0316 µM): 5.1%
viability, T/C (second compound 10 µM, first compound 0.1 µM): 4.07%
viability, T/C (second compound 10 µM, first compound 0.316 µM): 4.35%
viability, T/C (second compound 10 µM, first compound 1 µM): 3.57%
viability, T/C (second compound 10 µM, first compound 3.16 µM): 0.59%
viability, T/C (second compound 10 µM, first compound 10 µM): 0.16%
